Measured values as given in ChEMBL document CHEMBL1142856, “Design, synthesis, and structure-activity relationship of podocarpic acid amides as liver X receptor agonists for potential treatment of atherosclerosis” (Bioorg Med Chem Lett, 2005).

Columns and labels:
[1] = molecular target: T1, Oxysterols receptor LXR-beta (Homo sapiens) (UniProt P55055)
T1 sequence (whole entry): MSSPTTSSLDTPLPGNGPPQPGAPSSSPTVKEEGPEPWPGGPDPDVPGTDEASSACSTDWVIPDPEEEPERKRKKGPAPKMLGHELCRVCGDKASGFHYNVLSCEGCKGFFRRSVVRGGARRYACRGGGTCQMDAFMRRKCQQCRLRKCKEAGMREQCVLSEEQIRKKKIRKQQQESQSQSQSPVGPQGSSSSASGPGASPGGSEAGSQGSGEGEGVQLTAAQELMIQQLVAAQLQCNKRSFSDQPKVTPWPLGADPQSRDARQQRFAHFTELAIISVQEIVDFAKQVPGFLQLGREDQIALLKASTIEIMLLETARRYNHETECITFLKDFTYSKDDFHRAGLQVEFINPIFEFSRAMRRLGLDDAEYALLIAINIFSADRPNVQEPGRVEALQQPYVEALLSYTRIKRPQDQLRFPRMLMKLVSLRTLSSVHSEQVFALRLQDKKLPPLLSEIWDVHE
Description: TA max fold induction against LXR beta

[2] = molecular target: T2, Oxysterols receptor LXR-alpha (Homo sapiens) (UniProt Q13133)
T2 sequence (whole entry): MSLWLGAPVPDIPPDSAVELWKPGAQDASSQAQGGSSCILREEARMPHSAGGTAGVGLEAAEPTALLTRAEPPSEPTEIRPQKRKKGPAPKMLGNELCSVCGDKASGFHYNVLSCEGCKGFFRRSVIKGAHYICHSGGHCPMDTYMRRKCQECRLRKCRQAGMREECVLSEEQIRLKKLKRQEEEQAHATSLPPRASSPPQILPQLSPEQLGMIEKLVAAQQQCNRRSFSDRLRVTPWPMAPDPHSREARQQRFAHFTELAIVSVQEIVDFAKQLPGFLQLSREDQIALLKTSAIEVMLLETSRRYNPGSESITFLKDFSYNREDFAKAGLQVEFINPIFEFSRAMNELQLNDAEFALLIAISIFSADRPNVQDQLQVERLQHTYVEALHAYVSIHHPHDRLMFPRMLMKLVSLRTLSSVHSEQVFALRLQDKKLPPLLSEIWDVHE
Description: TA max fold induction against LXR alpha

[3] = molecular target: T3, Oxysterols receptor LXR-alpha (Homo sapiens, UniProt Q13133); assay: Inhibitory concentration in LXRSPA alpha binding assay
T3 sequence (Q13133 whole entry): T2 sequence (whole entry)

[4] = molecular target: T3, Oxysterols receptor LXR-alpha; assay: Effective concentration in recombinant human LXRalpha ligand binding domain in homogeneous time-resolved fluorescence assay
[5] = molecular target: T4, Oxysterols receptor LXR-beta (Homo sapiens, UniProt P55055); assay: Inhibitory concentration in LXRSPA beta binding assay
T4 sequence (P55055 whole entry): T1 sequence (whole entry)

[6] = molecular target: T4, Oxysterols receptor LXR-beta; assay: Effective concentration in recombinant human LXRbeta ligand binding domain in homogeneous time-resolved fluorescence assay

Row | Induction [1] | Induction [2] | Compound | IC50 [3] | EC50 [4] | IC50 [5] | EC50 [6]
1 | 54 | 60 | CC(=O)Oc1ccc2c(c1)[C@@]1(C)CCCC(C)(C(=O)OC(=O)[C@@]3(C)CCC[C@]4(C)c5cc(OC(C)=O)ccc5CC[C@@H]34)[C@@H]1CC2 (stereo partly specified) |  |  |  | 
2 |  |  | C=CCOC(=O)[C@@]1(C)CCC[C@]2(C)c3cc(O)ccc3CC[C@@H]12 | > 15 µM | > 50 µM | > 15 µM | > 50 µM
